From ChEMBL document CHEMBL6109096, “Synthesis, anti-allergic rhinitis evaluation and mechanism investigation of novel 1,2,4-triazole-enamides as CB1 R antagonist” (Eur J Med Chem, 2025)
Active and inactive are the calls of the source. No cut-off for these calls is given here.

Legend:
RAW264.7 [1] = assay: Cytotoxicity against mouse RAW264.7 cells assessed as reduction in cell viability at 10 uM incubated for 24 hrs by CCK-8 assay; type: toxicity, cell-based; conditions: raw264.7, 24 h
RAW264.7 [2] = assay: Anti-inflammatory activity in LPS-induced mouse RAW264.7 cells assessed as reduction in IL-6 mRNA expression incubated for 24 hrs by qRT-PCR analysis; type: functional, cell-based; conditions: dose 5-20 µM
RAW264.7 [3] = assay: Anti-inflammatory activity in LPS-induced mouse RAW264.7 cells assessed as reduction in IL-1beta mRNA expression incubated for 24 hrs by qRT-PCR analysis; type: functional, cell-based; conditions: dose 5-20 µM
RAW264.7 [4] = assay: Anti-inflammatory activity in LPS-induced mouse RAW264.7 cells assessed as reduction in TNF-alpha mRNA expression incubated for 24 hrs by qRT-PCR analysis; type: functional, cell-based; conditions: dose 5-20 µM
Mus musculus [5] = assay: Anti-inflammatory activity in ovalbumin-induced allergic rhinitis male Balb/c mouse model assessed as reduction in sneezing administered orally via gavage for 7 days; type: functional, organism-based; conditions: dose 50-150 mg/kg, route po, time 7.0 day
Mus musculus [6] = assay: Anti-inflammatory activity in ovalbumin-induced allergic rhinitis male Balb/c mouse model assessed as reduction in nose scratching administered orally via gavage for 7 days; type: functional, organism-based; conditions: dose 50-150 mg/kg, route po, time 7.0 day
Mus musculus [7] = assay: Anti-inflammatory activity in ovalbumin-induced allergic rhinitis male Balb/c mouse model assessed as reduction in IgE expression at 50 mg/kg, po administered via gavage for 7 days (reference value: 0.268 +/- 0.045); type: functional; conditions: time 7 day
Mus musculus [8] = assay: Anti-inflammatory activity in ovalbumin-induced allergic rhinitis male Balb/c mouse model assessed as reduction in IgE expression at 100 mg/kg, po administered via gavage for 7 days (reference value: 0.268 +/- 0.045); type: functional; conditions: time 7 day
Mus musculus [9] = assay: Anti-inflammatory activity in ovalbumin-induced allergic rhinitis male Balb/c mouse model assessed as reduction in IgE expression at 150 mg/kg, po administered via gavage for 7 days (reference value: 0.268 +/- 0.045); type: functional; conditions: time 7 day
Mus musculus [10] = assay: Anti-inflammatory activity in ovalbumin-induced allergic rhinitis male Balb/c mouse model assessed as reduction in serum histamine expression at 50 to 150 mg/kg, po administered via gavage for 7 days by ELISA; type: functional, organism-based; conditions: dose 50-150 mg/kg, time 7.0 day
Mus musculus [11] = assay: Anti-inflammatory activity in ovalbumin-induced allergic rhinitis male Balb/c mouse model assessed as reduction in IL-4 expression in nasal lavage fluid at 50 to 150 mg/kg, po administered via gavage for 7 days by ELISA; type: functional, organism-based; conditions: dose 50-150 mg/kg, time 7.0 day
Mus musculus [12] = assay: Anti-inflammatory activity in ovalbumin-induced allergic rhinitis male Balb/c mouse model assessed as reduction in serum histamine expression at 150 mg/kg, po administered via gavage for 7 days by ELISA; type: functional, organism-based; conditions: time 7.0 day
Mus musculus [13] = assay: Anti-inflammatory activity in ovalbumin-induced allergic rhinitis male Balb/c mouse assessed as reduction in number of cells on nasal lavage fluid at 50 to 150 mg/kg, po administered via gavage for 7 days by giemsa staining based analysis; type: functional, organism-based; conditions: dose 50-150 mg/kg, time 7.0 day
Mus musculus [14] = assay: Anti-inflammatory activity in ovalbumin-induced allergic rhinitis male Balb/c mouse assessed as reduction in number of mast cells on nasal lavage fluid at 50 to 150 mg/kg, po administered via gavage for 7 days by giemsa staining based analysis; type: functional, organism-based; conditions: dose 50-150 mg/kg, time 7.0 day
Mus musculus [15] = assay: Anti-inflammatory activity in ovalbumin-induced allergic rhinitis male Balb/c mouse assessed as reduction in number of eosinophils on nasal lavage fluid at 50 to 150 mg/kg, po administered via gavage for 7 days by giemsa staining based analysis; type: functional, organism-based; conditions: dose 50-150 mg/kg, time 7.0 day
Mus musculus [16] = assay: Anti-inflammatory activity in ovalbumin-induced allergic rhinitis male Balb/c mouse assessed as reduction in number of eosinophils on nasal lavage fluid at 150 mg/kg, po administered via gavage for 7 days by giemsa staining based analysis; type: functional, organism-based; conditions: time 7.0 day
Mus musculus [17] = assay: Anti-inflammatory activity in ovalbumin-induced allergic rhinitis male Balb/c mouse assessed as reduction in number of mast cells on nasal lavage fluid at 150 mg/kg, po administered via gavage for 7 days by giemsa staining based analysis; type: functional, organism-based; conditions: time 7.0 day
Mus musculus [18] = assay: Anti-inflammatory activity in ovalbumin-induced allergic rhinitis male Balb/c mouse assessed as reduction in inflammation of nasal mucosal tissue at 50 to 150 mg/kg, po administered via gavage for 7 days by H and E staining based analysis; type: functional, organism-based; conditions: dose 50-150 mg/kg, time 7.0 day
Mus musculus [19] = assay: Anti-inflammatory activity in ovalbumin-induced allergic rhinitis male Balb/c mouse assessed as reduction in number of goblet cells in nasal mucosal tissues at 50 to 150 mg/kg, po administered via gavage for 7 days by PAS staining based analysis; type: functional, organism-based; conditions: dose 50-150 mg/kg, time 7.0 day
RAW264.7 [20] = assay: Downregulation of CB1 R expression in LPS-induced mouse RAW264.7 cells at 5 to 20 uM by immunofluorescence staining based analysis; type: functional, cell-based; conditions: dose 5-20 µM
RAW264.7 [21] = assay: Downregulation of P-P65 protein expression in LPS-induced mouse RAW264.7 cells at 5 to 20 uM by Western blotting analysis; type: functional, cell-based; conditions: dose 5-20 µM
RAW264.7 [22] = assay: Downregulation of P-IKBalpha protein expression in LPS-induced mouse RAW264.7 cells at 5 to 20 uM by Western blotting analysis; type: functional, cell-based; conditions: dose 5-20 µM
RAW264.7 [23] = assay: Downregulation of p-P38 protein expression in LPS-induced mouse RAW264.7 cells at 5 to 20 uM by Western blotting analysis; type: functional, cell-based; conditions: dose 5-20 µM
RAW264.7 [24] = assay: Downregulation of p-JNK protein expression in LPS-induced mouse RAW264.7 cells at 5 to 20 uM by Western blotting analysis; type: functional, cell-based; conditions: dose 5-20 µM
RAW264.7 [25] = assay: Downregulation of p-ERK protein expression in LPS-induced mouse RAW264.7 cells at 5 to 20 uM by Western blotting analysis; type: functional, cell-based; conditions: dose 5-20 µM
RAW264.7 [26] = assay: Downregulation of p-P38 expression in mouse RAW264.7 cells at 5 to 20 uM by immunofluorescence staining based analysis; type: functional, cell-based; conditions: dose 5-20 µM
RAW264.7 [27] = assay: Downregulation of p-P38 intranuclear expression in mouse RAW264.7 cells at 5 to 20 uM by immunofluorescence staining based analysis; type: functional, cell-based; conditions: dose 5-20 µM
Mus musculus [28] = assay: Anti-inflammatory activity in ovalbumin-induced allergic rhinitis male Balb/c mouse model assessed as decrease in p-p38 intranuclear expression in nasal mucosal at 50 to 150 mg/kg, po administered via gavage for 7 days by immunofluorescence staining based analysis; type: functional, organism-based; conditions: dose 50-150 mg/kg, time 7.0 day
RAW264.7 [29] = assay: Inhibition of IL-1beta (unknown origin) in mouse RAW264.7 relative to control; type: cell-based; conditions: dose or concentration not given here
RAW264.7 [30] = assay: Inhibition of IL-6 (unknown origin) in mouse RAW264.7 relative to control; type: cell-based; conditions: dose or concentration not given here

CN(/C=C\c1ccccc1)C(=O)c1nc(C2CCCCC2)n(-c2ccccc2)n1
Activity (RAW264.7 [1]): Non-toxic
Activity (RAW264.7 [2]): Dose-dependent-effect
Activity (RAW264.7 [3]): Dose-dependent-effect
Activity (RAW264.7 [4]): Dose-dependent-effect
Activity (Mus musculus [5]): Dose-dependent-effect
Activity (Mus musculus [6]): Dose-dependent-effect
Activity (Mus musculus [7]): 0.192
Activity (Mus musculus [8]): 0.212
Activity (Mus musculus [9]): 0.182
Activity (Mus musculus [10]): Active
Activity (Mus musculus [11]): Active
Activity (Mus musculus [12]): Active; More Effective Than Other Dosing Group
Activity (Mus musculus [13]): Active
Activity (Mus musculus [14]): Active
Activity (Mus musculus [15]): Active
Activity (Mus musculus [16]): Active; Most Effective Group Compared To Other Dosing Group
Activity (Mus musculus [17]): Active; Most Effective Group Compared To Other Dosing Group
Activity (Mus musculus [18]): Active
Activity (Mus musculus [19]): Active
Activity (RAW264.7 [20]): Active
Activity (RAW264.7 [21]): Active
Activity (RAW264.7 [22]): Active
Activity (RAW264.7 [23]): Active
Activity (RAW264.7 [24]): Active
Activity (RAW264.7 [25]): Active
Activity (RAW264.7 [26]): Active
Activity (RAW264.7 [27]): Active
Activity (Mus musculus [28]): Active
inhibition (RAW264.7 [29]): 77%
inhibition (RAW264.7 [30]): 88%

Cc1cc(C)c(-c2nc(C(=O)N(C)/C=C\c3ccccc3)nn2-c2ccccc2)c(C)c1
Activity (RAW264.7 [1]): Non-toxic

CC(C)c1nc(C(=O)N(C)/C=C\c2ccccc2)nn1-c1ccccc1
Activity (RAW264.7 [1]): Non-toxic
